In patent publication US10544150B2, “NK-3 receptor selective antagonist compounds, pharmaceutical composition and methods for use in NK-3 receptors mediated disorders” (Ogeda SA, priority 2010, dated 2020):

Molecular target: human NK-3 receptor (Homo sapiens (Human), UniProt P29371)
Test: 3H-SB222200 binding competition assay with human NK-3 receptor
Settings: 3H-SB222200 displacement, CHO cell membranes expressing human NK3 receptor; read-out: Ki range
Method: The affinity of compounds of the invention for the tachykinin receptors was determined by measuring the ability of the compounds of the invention to displace a radiolabeled ligand from its specifics binding site.
^3H-SB222200 Binding Competition Assay with Human NK-3 Receptor
The ability of the compounds of the invention to inhibit the binding of the NK-3 receptor selective antagonist SB222200 was assessed by an in vitro radioligand binding assay. Membranes were prepared from Chinese hamster ovary recombinant cells which express the human NK3 receptor. The membranes were incubated with 5 nM ^3H-SB222200_(ARC) in a HEPES 25 mM/NaCl 0.1M/CaCl2 1 mM/MgCl2 5 Mm/BSA 0.5%/Saponin 10 μg/ml buffer at pH 7.4 and various concentrations of the compounds of the invention. The amount of tritiated SB222200 bound to the receptor was determined after filtration by the quantification of membrane associated radioactivity using the TopCount-NXT reader (Packard). […] In Table 3 biological results obtained using the ^3H-SB222200 binding competition assay with compounds of the invention are set out in tabulated form. In this table the calculated Ki is given. The Ki value obtained (in accordance with the protocol set forth above) is represented as follows: “+++” means Ki<500 nM; “++” means 500 nM≤Ki≤1 μM; “+” means 1 μM<Ki≤5 μM; “#” means Ki>5 μM.

Sequence of human NK-3 receptor (P29371 whole entry): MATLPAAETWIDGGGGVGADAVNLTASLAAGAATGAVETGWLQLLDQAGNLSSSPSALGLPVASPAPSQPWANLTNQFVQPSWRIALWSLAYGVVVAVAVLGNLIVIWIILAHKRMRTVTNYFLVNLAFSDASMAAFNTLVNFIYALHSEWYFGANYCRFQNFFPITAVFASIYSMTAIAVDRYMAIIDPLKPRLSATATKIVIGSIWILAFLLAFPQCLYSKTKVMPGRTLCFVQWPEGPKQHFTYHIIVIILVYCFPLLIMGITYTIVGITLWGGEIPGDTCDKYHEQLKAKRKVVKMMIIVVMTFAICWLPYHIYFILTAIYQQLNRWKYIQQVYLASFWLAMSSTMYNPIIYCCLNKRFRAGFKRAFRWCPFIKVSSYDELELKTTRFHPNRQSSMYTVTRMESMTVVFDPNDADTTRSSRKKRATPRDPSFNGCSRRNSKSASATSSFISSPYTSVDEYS

Structure (SMILES)	Ki
O=C(c1ccc(F)cc1)N1CCn2c(nnc2-c2cccc(C(F)(F)F)n2)C1 [Compound 39, (4-fluorophenyl)(3-(6-(trifluoromethyl)pyridin-2-yl)-5,6-dihydro-[1,2,4]triazolo[4,3-a]pyrazin-7(8H)-yl)methanone]	0.5 to 1 µM
COc1ccc(-c2nc(-c3nnc4n3CCN(C(=O)c3ccc(F)cc3)C4)cs2)cc1OC [Compound 40, (3-(2-(3,4-dimethoxyphenyl)thiazol-4-yl)-5,6-dihydro-[1,2,4]triazolo[4,3-a]pyrazin-7(8H)-yl)(4-fluorophenyl)methanone]	< 0.5 µM
O=C(c1ccc(F)cc1)N1CCn2c(-c3csc(-c4ccccc4)n3)nnc2C1c1ccc(F)cc1 (stereo not drawn) [Compound 41, (4-fluorophenyl)(8-(4-fluorophenyl)-3-(2-phenylthiazol-4-yl)-5,6-dihydro-[1,2,4]triazolo[4,3-a]pyrazin-7(8H)-yl)methanone]	< 0.5 µM
CC(C)C1c2nnc(-c3csc(-c4ccccc4)n3)n2CCN1C(=O)c1ccc(F)cc1 (stereo not drawn) [Compound 43, (4-fluorophenyl)(8-isopropyl-3-(2-phenylthiazol-4-yl)-5,6-dihydro-[1,2,4]triazolo[4,3-a]pyrazin-7(8H)-yl)methanone]	1 to 5 µM
C[C@@H]1c2nnc(-c3ccccn3)n2CCN1C(=O)c1ccc(F)cc1 [Compound 44, (R)-(4-fluorophenyl)(8-methyl-3-(pyridin-2-yl)-5,6-dihydro-[1,2,4]triazolo[4,3-a]pyrazin-7(8H)-yl)methanone]	1 to 5 µM
C[C@@H]1c2nnc(-c3csc(-c4ccccc4)n3)n2CCN1C(=O)c1ccc(F)cc1 [Compound 45, (R)-(4-fluorophenyl)(8-methyl-3-(2-phenylthiazol-4-yl)-5,6-dihydro-[1,2,4]triazolo[4,3-a]pyrazin-7(8H)-yl)methanone]	< 0.5 µM
CC1c2nnc(-c3csc(N4CCOCC4)n3)n2CCN1C(=O)c1ccc(-c2ccccc2)cc1 (stereo not drawn) [Compound 46, [1,1′-biphenyl]-4-yl(8-methyl-3-(2-morpholinothiazol-4-yl)-5,6-dihydro-[1,2,4]triazolo[4,3-a]pyrazin-7(8H)-yl)methanone]	< 0.5 µM
O=C(c1ccc(F)cc1)N1CCn2c(nnc2-c2coc(-c3ccccc3)n2)C1 [Compound 47, (4-fluorophenyl)(3-(2-phenyloxazol-4-yl)-5,6-dihydro-[1,2,4]triazolo[4,3-a]pyrazin-7(8H)-yl)methanone]	< 0.5 µM
CC1c2nnc(-c3coc(-c4ccccc4)n3)n2CCN1C(=O)c1ccc(F)cc1 (stereo not drawn) [Compound 48, (4-fluorophenyl)(8-methyl-3-(2-phenyloxazol-4-yl)-5,6-dihydro-[1,2,4]triazolo[4,3-a]pyrazin-7(8H)-yl)methanone]	< 0.5 µM
CC1c2nnc(-c3coc(-c4ccccc4)n3)n2CCN1C(=O)c1ccc(-c2ccccc2)cc1 (stereo not drawn) [Compound 49, [1,1′-biphenyl]-4-yl(8-methyl-3-(2-phenyloxazol-4-yl)-5,6-dihydro-[1,2,4]triazolo[4,3-a]pyrazin-7(8H)-yl)methanone]	< 0.5 µM
O=C(c1ccc(-c2ccccc2)cc1)N1CCn2c(nnc2-c2coc(-c3ccccc3)n2)C1 [Compound 50, [1,1′-biphenyl]-4-yl(3-(2-phenyloxazol-4-yl)-5,6-dihydro-[1,2,4]triazolo[4,3-a]pyrazin-7(8H)-yl)methanone]	< 0.5 µM
O=C(c1ccc(F)cc1)N1CCn2c(-c3csc(-c4ccccc4)n3)nnc2C1CCO (stereo not drawn) [Compound 51, (4-fluorophenyl)(8-(2-hydroxyethyl)-3-(2-phenylthiazol-4-yl)-5,6-dihydro-[1,2,4]triazolo[4,3-a]pyrazin-7(8H)-yl)methanone]	< 0.5 µM
CC1c2nnc(-c3csc(N4CCOCC4)n3)n2CCN1C(=O)c1ccc(F)cc1 (stereo not drawn) [Compound 52, (4-fluorophenyl)(8-methyl-3-(2-morpholinothiazol-4-yl)-5,6-dihydro-[1,2,4]triazolo[4,3-a]pyrazin-7(8H)-yl)methanone]	< 0.5 µM
CC1c2nnc(-c3csc(N4CCOCC4)n3)n2CCN1C(=O)c1ccc(-c2ccc(F)cc2)cc1 (stereo not drawn) [Compound 53, (4′-fluoro-[1,1′-biphenyl]-4-yl)(8-methyl-3-(2-morpholinothiazol-4-yl)-5,6-dihydro-[1,2,4]triazolo[4,3-a]pyrazin-7(8H)-yl)methanone]	< 0.5 µM
O=C(c1ccc(-c2cccs2)cc1)N1CCn2c(nnc2-c2csc(-c3ccccc3)n2)C1 [Compound 54, (3-(2-phenylthiazol-4-yl)-5,6-dihydro-[1,2,4]triazolo[4,3-a]pyrazin-7(8H)-yl)(4-(thiophen-2-yl)phenyl)methanone]	< 0.5 µM
O=C(c1ccc(-c2cccs2)cc1)N1CCn2c(nnc2-c2csc(N3CCOCC3)n2)C1 [Compound 55, (3-(2-morpholinothiazol-4-yl)-5,6-dihydro-[1,2,4]triazolo[4,3-a]pyrazin-7(8H)-yl)(4-(thiophen-2-yl)phenyl)methanone]	< 0.5 µM
CC1c2nnc(-c3csc(N4CCOCC4)n3)n2CCN1C(=O)c1ccc(-c2cccs2)cc1 (stereo not drawn) [Compound 56, (8-methyl-3-(2-morpholinothiazol-4-yl)-5,6-dihydro-[1,2,4]triazolo[4,3-a]pyrazin-7(8H)-yl)(4-(thiophen-2-yl)phenyl)methanone]	< 0.5 µM
O=C(c1ccc(F)cc1)N1CCn2c(nnc2-c2nc(-c3ccccc3)cs2)C1 [Compound 57, (4-fluorophenyl)(3-(4-phenylthiazol-2-yl)-5,6-dihydro-[1,2,4]triazolo[4,3-a]pyrazin-7(8H)-yl)methanone]	< 0.5 µM
O=C(c1ccc(F)cc1)N1CCn2c(nnc2-c2nc3ccccc3s2)C1 [Compound 59, (3-(benzo[d]thiazol-2-yl)-5,6-dihydro-[1,2,4]triazolo[4,3-a]pyrazin-7(8H)-yl)(4-fluorophenyl)methanone]	< 0.5 µM
CC1(C)c2nnc(-c3csc(-c4ccccc4)n3)n2CCN1C(=O)c1ccc(F)cc1 [Compound 60, (8,8-dimethyl-3-(2-phenylthiazol-4-yl)-5,6-dihydro-[1,2,4]triazolo[4,3-a]pyrazin-7(8H)-yl)(4-fluorophenyl)methanone]	< 0.5 µM
CC1c2nnc(-c3ccc4ccccc4n3)n2CCN1C(=O)c1ccc(F)cc1 (stereo not drawn) [Compound 61, (4-fluorophenyl)(8-methyl-3-(quinolin-2-yl)-5,6-dihydro-[1,2,4]triazolo[4,3-a]pyrazin-7(8H)-yl)methanone]	< 0.5 µM
CC1c2nnc(-c3csc(-c4ccccc4)n3)n2CCN1C(=O)c1ccc(-c2cccs2)cc1 (stereo not drawn) [Compound 62, (8-methyl-3-(2-phenylthiazol-4-yl)-5,6-dihydro-[1,2,4]triazolo[4,3-a]pyrazin-7(8H)-yl)(4-(thiophen-2-yl)phenyl)methanone]	< 0.5 µM
O=C(c1ccc(-c2ccsc2)cc1)N1CCn2c(nnc2-c2csc(-c3ccccc3)n2)C1 [Compound 63, (3-(2-phenylthiazol-4-yl)-5,6-dihydro-[1,2,4]triazolo[4,3-a]pyrazin-7(8H)-yl)(4-(thiophen-3-yl)phenyl)methanone]	< 0.5 µM
CC1c2nnc(-c3csc(-c4ccccc4)n3)n2CCN1C(=O)c1ccc(-c2ccsc2)cc1 (stereo not drawn) [Compound 64, (8-methyl-3-(2-phenylthiazol-4-yl)-5,6-dihydro-[1,2,4]triazolo[4,3-a]pyrazin-7(8H)-yl)(4-(thiophen-3-yl)phenyl)methanone]	< 0.5 µM
CC1c2nnc(-c3ccc4ccccc4n3)n2CCN1C(=O)c1ccc(-c2cccs2)cc1 (stereo not drawn) [Compound 65, (8-methyl-3-(quinolin-2-yl)-5,6-dihydro-[1,2,4]triazolo[4,3-a]pyrazin-7(8H)-yl)(4-(thiophen-2-yl)phenyl)methanone]	< 0.5 µM
O=C(c1ccc(-c2cccs2)cc1)N1CCn2c(nnc2-c2ccc3ccccc3n2)C1 [Compound 69, (3-(quinolin-2-yl)-5,6-dihydro-[1,2,4]triazolo[4,3-a]pyrazin-7(8H)-yl)(4-(thiophen-2-yl)phenyl)methanone]	< 0.5 µM
CC1c2nnc(-c3csc(-c4ccc(F)cc4)n3)n2CCN1C(=O)c1ccc(F)cc1 (stereo not drawn) [Compound 70, (4-fluorophenyl)(3-(2-(4-fluorophenyl)thiazol-4-yl)-8-methyl-5,6-dihydro-[1,2,4]triazolo[4,3-a]pyrazin-7(8H)-yl)methanone]	< 0.5 µM
Cc1nc(-c2ccccc2)sc1-c1nnc2n1CCN(C(=O)c1ccc(-c3ccccc3)cc1)C2C (stereo not drawn) [Compound 72, [1,1′-biphenyl]-4-yl(8-methyl-3-(4-methyl-2-phenylthiazol-5-yl)-5,6-dihydro-[1,2,4]triazolo[4,3-a]pyrazin-7(8H)-yl)methanone]	< 0.5 µM
O=C(c1ccc(-c2cccs2)cc1)N1CCn2c(nnc2-c2csc(-c3ccc(F)cc3)n2)C1 [Compound 73, (3-(2-(4-fluorophenyl)thiazol-4-yl)-5,6-dihydro-[1,2,4]triazolo[4,3-a]pyrazin-7(8H)-yl)(4-(thiophen-2-yl)phenyl)methanone]	< 0.5 µM
Cc1nc(-c2ccccc2)sc1-c1nnc2n1CCN(C(=O)c1ccc(F)cc1)C2C (stereo not drawn) [Compound 75, (4-fluorophenyl)(8-methyl-3-(4-methyl-2-phenylthiazol-5-yl)-5,6-dihydro-[1,2,4]triazolo[4,3-a]pyrazin-7(8H)-yl)methanone]	0.5 to 1 µM
